In PubChem BioAssay AID1259411 (Chemical Carcinogenesis Research Information System (CCRIS), 2018):
Activity calls are given as the source filed them. The rule behind the calls is not given here.

Tested on: rodent carcinogenicity bioassays, tumor incidence
Experiment: CCRIS carcinogenicity studies
Conditions: Species: RAT
Summary of the method: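 NCI-built, expert-reviewed records of carcinogenicity and related test outcomes (mutagenicity, tumor promotion/inhibition) compiled from published and report sources, historical span 1985-2011, not updated.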

Structure (SMILES): C=CCl
- carcinogen call (Strain/Sex: SPRAGUE-DAWLEY/FEMALE, Route: INHALATION, Dose: 0, 6000, 10000 PPM IN AIR 4 HR/D 1 D/WK FOR 25 WK (STUDY DURATION: LIFETIME), Dose: 0, 6000, 10000 PPM IN AIR 4 HR/D 1 D/WK FOR 25 WK (STUDY DURATION: LIFETIME), Tumor Site: Type of Lesion: [BRAIN WAS ONLY SITE EVALUATED]): inactive; negative
- carcinogen call (Strain/Sex: SPRAGUE-DAWLEY/FEMALE, Route: INHALATION, Dose: 0, 6000, 10000 PPM IN AIR 4 HR/D 5 D/WK FOR 5 WK (STUDY DURATION: LIFETIME), Dose: 0, 6000, 10000 PPM IN AIR 4 HR/D 5 D/WK FOR 5 WK (STUDY DURATION: LIFETIME), Tumor Site: Type of Lesion: [BRAIN WAS ONLY SITE EVALUATED]): inactive; negative
- carcinogen call (Strain/Sex: SPRAGUE-DAWLEY/MALE,FEMALE, Route: GAVAGE, Dose: 0, 3.33, 16.65, 50.0 MG/KG IN OLIVE OIL 1/D, 4-5 D/WK FOR 52 WK (STUDY DURATION: 136 WK), Dose: 0, 3.33, 16.65, 50.0 MG/KG IN OLIVE OIL 1/D, 4-5 D/WK FOR 52 WK (STUDY DURATION: 136 WK), Tumor Site: Type of Lesion: LIVER: ANGIOSARCOMA): active; positive
- carcinogen call (Strain/Sex: SPRAGUE-DAWLEY/MALE,FEMALE, Route: INHALATION, Dose: 0, 50-10000 PPM 4 HR/D, 5 D/WK FOR 52 WK (STUDY DURATION: 135 WK), Tumor Site: Type of Lesion: LIVER: ANGIOSARCOMA, NERVOUS SYSTEM: NEUROBLASTOMA, EAR (ZYMBAL GLAND): CARCINOMA, KIDNEY: NEPHROBLASTOMA, Tumor Site: Type of Lesion: LIVER: ANGIOSARCOMA, NERVOUS SYSTEM: NEUROBLASTOMA, EAR (ZYMBAL GLAND): CARCINOMA, KIDNEY: NEPHROBLASTOMA): active; positive
- carcinogen call (Strain/Sex: SPRAGUE-DAWLEY/MALE, Route: GAVAGE, Dose: 0, 0.03, 0.3, 1, 3.33, 16.65, 50 MG/KG BW IN OLIVE OIL 1/D 4-5 D/WK FOR 52-59 WK (STUDY DURATION: LIFETIME), Dose: 0, 0.03, 0.3, 1, 3.33, 16.65, 50 MG/KG BW IN OLIVE OIL 1/D 4-5 D/WK FOR 52-59 WK (STUDY DURATION: LIFETIME), Tumor Site: Type of Lesion: [BRAIN WAS ONLY SITE EVALUATED]): inactive; negative
- carcinogen call (Strain/Sex: SPRAGUE-DAWLEY/MALE, Route: INHALATION, Dose: 0, 600 PPM 4 HR/D, 5 D/WK FOR 1 YR (STUDY DURATION: 2.5 YR), Tumor Site: Type of Lesion: LIVER: HEPATOCELLULAR CARCINOMA, ANGIOSARCOMA): active; positive
- carcinogen call (Strain/Sex: SPRAGUE-DAWLEY/MALE, Route: INHALATION, Dose: 0, 2500 PPM 4 HR/D 5 D/WK FOR 7 WK THEN 7 HR/D 5 D/WK FOR 8 WK ADMINISTERED TO RAT EMBRYOS BEGINNING ON 12TH DAY OF GEST, Tumor Site: Type of Lesion: LIVER: HEPATOMA, ANGIOSARCOMA, BRAIN: NEUROBLASTOMA): active; positive
- carcinogen call (Strain/Sex: SPRAGUE-DAWLEY/MALE, Route: INHALATION, Dose: 0, 2500 PPM 4 HR/D 5 D/WK FOR 7 WK THEN 7 HR/D 5 D/WK FOR 69 WK ADMINISTERED TO RAT EMBRYOS BEGINNING ON 12TH DAY OF GES, Tumor Site: Type of Lesion: BRAIN: NEUROBLASTOMA, LIVER, HEPATOCARCINOMA, ANGIOSARCOMA, Tumor Site: Type of Lesion: BRAIN: NEUROBLASTOMA, LIVER, HEPATOCARCINOMA, ANGIOSARCOMA): active; positive
- carcinogen call (Strain/Sex: SPRAGUE-DAWLEY/MALE, Route: INHALATION, Dose: 0, 6000, 10000 PPM IN AIR 1 HR/D 4 D/WK FOR 25 WK (STUDY DURATION: LIFETIME), Dose: 0, 6000, 10000 PPM IN AIR 1 HR/D 4 D/WK FOR 25 WK (STUDY DURATION: LIFETIME), Tumor Site: Type of Lesion: [BRAIN WAS ONLY SITE EVALUATED]): inactive; negative
- carcinogen call (Strain/Sex: SPRAGUE-DAWLEY/MALE, Route: INHALATION, Dose: 0, 6000, 10000 PPM IN AIR 4 HR/D 1 D/WK FOR 25 WK (STUDY DURATION: LIFETIME), Dose: 0, 6000, 10000 PPM IN AIR 4 HR/D 1 D/WK FOR 25 WK (STUDY DURATION: LIFETIME), Tumor Site: Type of Lesion: [BRAIN WAS ONLY SITE EVALUATED]): inactive; negative
- carcinogen call (Strain/Sex: SPRAGUE-DAWLEY/MALE, Route: INHALATION, Dose: 0, 6000, 10000 PPM IN AIR 4 HR/D 5 D/WK FOR 5 WK (STUDY DURATION: LIFETIME), Dose: 0, 6000, 10000 PPM IN AIR 4 HR/D 5 D/WK FOR 5 WK (STUDY DURATION: LIFETIME), Tumor Site: Type of Lesion: [BRAIN WAS ONLY SITE EVALUATED]): inactive; negative
- carcinogen call (Strain/Sex: SPRAGUE-DAWLEY, Route: ORAL, Tumor Site: Type of Lesion: LIVER): active; positive
- carcinogen call (Strain/Sex: WISTAR/FEMALE, Route: ORAL, Dose: 0, 0.014, 0.13, 1.3 MG/KG/BW/D IN DIET FOR DURATION OF STUDY (STUDY DURATION: 150 WK), Dose: 0, 0.014, 0.13, 1.3 MG/KG/BW/D IN DIET FOR DURATION OF STUDY (STUDY DURATION: 150 WK), Tumor Site: Type of Lesion: LIVER: NEOPLASTIC NODULES): active; positive
- carcinogen call (Strain/Sex: WISTAR/MALE, Route: INHALATION, Dose: 0, 1, 50, 250, 500, 2500, 6000, 10000 PPM 4 HR/D, 5 D/WK FOR 52 WK (STUDY DURATION: 134-165 WK), Dose: 0, 1, 50, 250, 500, 2500, 6000, 10000 PPM 4 HR/D, 5 D/WK FOR 52 WK (STUDY DURATION: 134-165 WK), Tumor Site: Type of Lesion: LIVER: ANGIOSARCOMA, NERVOUS SYSTEM: NEUROBLASTOMA): active; positive
- carcinogen call (Strain/Sex: WISTAR/MALE, Route: ORAL, Dose: 0, 0.014, 0.13, 1.3 MG/KG/BW/D IN DIET FOR DURATION OF STUDY (STUDY DURATION: 149 WK), Dose: 0, 0.014, 0.13, 1.3 MG/KG/BW/D IN DIET FOR DURATION OF STUDY (STUDY DURATION: 149 WK), Tumor Site: Type of Lesion: LIVER: HEPATOCELLULAR CARCINOMA): active; positive
